Assay results reported in publication PMC8137473, “Preclinical trial of a MAP4K4 inhibitor to reduce infarct size in the pig: does cardioprotection in human stem cell-derived myocytes predict success in large mammals?” (Basic Research in Cardiology, 2021).

Columns and labels:
aqueous solubility = type: physicochemical
Protocol: The chemical structures of DMX-5804 and DMX-10001 are compared in Fig. 1a, highlighting the phosphate moiety of the pro-drug. The aqueous solubility of DMX-10001 was > 400-fold greater than that of DMX-5804, allowing it to be infused i.v. without prohibitive fluid volumes. Cleavage to DMX-5804 was detectable in rats within 5 min and largely complete within 60 min (Fig. 1b). Data from i.v. infusion at a range of dose levels in the pig were simultaneously fit to a three-compartment pharmacokinetic model. Plasma protein binding in pig was used to determine free drug levels (not shown). Various dosing regimens were simulated to avoid an initial spike in DMX-5804 whilst rapidly achieving the efficacious drug levels seen in mice after oral gavage (Fig. 1c).

porcine model of MI = experiment: efficacy study, LAD occlusion 60 min / reperfusion 24 h: infarct size, no-reflow, area at risk; type: in vivo, swine
Protocol: (§1) Next, an efficacy study was performed, in adherence to published guidelines for rigor and reproducibility, to evaluate the postulated benefit of DMX-10001 in a large-mammal model of MI. Briefly, 36 closed-chest swine (41 ± 2 kg) were subjected to regional ischemia by occluding the left anterior descending coronary artery (LAD) distal to the first diagonal branch for 60 min, followed by 24 h of reperfusion. Treatment with DMX-10001 (60 mg/kg/h for 0.5 h, followed by 17 mg/kg/h for 23.5 h) versus the vehicle was initiated 20 min prior to reperfusion and continued for 1 day. After 2 h of reperfusion, animals were allowed to recover from anesthesia. At 24 h of reperfusion, the infarct area (IA), area of no-reflow (NR), and area at ischemic risk (AAR) were determined. Transthoracic short-axis B-mode echocardiograms and measurements of LV pressure and its first derivative (LVdP/dt) were obtained at baseline and at 24 h of reperfusion. LV pressure–volume measurements were obtained at 24 h of reperfusion. Heart-type fatty acid binding protein (hFABP) release was measured, as a biomarker that correlates with IS and NR in swine at least as well as cardiac troponin I [30].
The LAD was catheterized with a standard clinical guiding catheter (JL3.5, 6F, Medtronic, Minneapolis, MN), and quantitative coronary angiography (CAAS, PIE Medical, Maastricht, The Netherlands) was performed following 2 mg isosorbidedinitrate (Cedocard, Nycomed, Hoofddorp, The Netherlands) and using iodixanol as contrast agent (Visipaque™, GE Healthcare BV, Eindhoven, The Netherlands). Then, an over-the-wire coronary angioplasty balloon (Sprinter OTW, 2–3 mm × 6 mm, Medtronic, Minneapolis, MN) on a standard guide wire (0.014″, 180 cm, ASAHI SION blue, ASAHI Intecc co Ltd, Aichi, Japan) was carefully positioned under fluoroscopic guidance distal to the first diagonal branch. Following balloon inflation, total coronary occlusion was confirmed by angiography (at baseline and at 58 min of occlusion) and by ECG changes. Animals that developed VF during the protocol were defibrillated within 25 ± 10 s. After 1 h of occlusion, the coronary balloon was deflated to establish reperfusion, which was angiographically confirmed to ensure an adequate coronary blood flow to the entire LAD perfusion territory. Heart rate, aortic blood pressure, and ECG were monitored until 2 h of reperfusion.
Twenty min before the onset of reperfusion, an initial rapid administration was started (30 min infusion, 60 mg/kg/h, Alaris CC, Cardinal Health, Role, Switzerland), followed after 10 min of reperfusion by a lower sustained dose (23.5 h infusion, 17 mg/kg/h, Myfuser, CANOX medical Device Srl, Capurso, Italy). The dosing regimen was determined by iterative computer modeling (XenoGesis Ltd, Alderley Park, UK) (Fig. 1b), based on prior dose-finding studies in pigs (data not shown).
After completing the post-infarct LV functional measurements on day two, the LAD was again catheterized, as before. The over-the-wire coronary angioplasty balloon and guide wire were positioned under fluoroscopic guidance at the same position, using anatomic landmarks (distance from sidebranches) visualized by coronary angiography. Through the lumen of the balloon, 5 ml of 4% (w/v) thioflavin-S solution (Sigma, Zwijndrecht, The Netherlands) were injected, allowing the area of no-reflow within the AAR to be measured later histologically. The balloon was re-inflated to re-occlude the LAD and a sternotomy was performed. Next, a bolus of 40 ml of a 15% (w/v) Evans Blue solution was injected into the left atrium for negative staining of the AAR. To facilitate excision, the heart was arrested via induction of VF by gently touching the LV epicardium with a 9 V battery. The LV was isolated and sectioned into 5 transverse slices. The AAR and area of no-reflow (NR), visualized using UV light, were quantified in all sections. […]

[1] = system: heart-type fatty acid binding protein (hFABP); experiment: efficacy study: plasma hFABP release (ELISA); type: in vivo, swine
Protocol: as §1, with “Transthoracic short-axis B-mode echocardiograms and measurements of LV pressure and its first derivative (LVdP/dt) were obtained at baseline and at 24 h of reperfusion. LV pressure–volume measurements were obtained at 24 h of reperfusion.” left out, “[30]. […] Levels of DMX-10001 and DMX-5804 were determined by liquid chromatography–mass spectrometry (Pharmidex, London, UK). Porcine hFABP was analyzed as described: plasma samples were thawed on ice, diluted 10 × using the standard diluent provided with the kit, and analyzed by enzyme-linked immunosorbent assays according to the manufacturer’s instructions (Life Diagnostics, West Chester, PA). […]” for “[30].”

aqueous solubility relative to that of DMX-5804 (aqueous solubility): > 400 fold
SMILES: COCCOc1ccc(-c2cn(-c3ccccc3)c3ncn(COP(=O)(O)O)c(=O)c23)cc1 [DMX-10001]
IS/AAR (porcine model of MI; excluding one statistical outlier, n = 11): 82.1 ± 8.6% | difference in IS/AAR vs the vehicle control (porcine model of MI; excluding one statistical outlier, P = 0.0562): 7% | effect on NR, NR/AAR or NR/IS (porcine model of MI; full cohort): no significant effect | IS/AAR (porcine model of MI; full cohort, n = 12): 76.3 ± 21.6% | extent of infarction (IS) (porcine model of MI; full cohort, n = 12): 18.2 ± 5.8 g | extent of infarction (IS) as % of LV mass (porcine model of MI; full cohort, n = 12): 17.2 ± 5.7% | reduction of the extent of infarction in grams or % of LV mass vs vehicle (porcine model of MI; full cohort, n = 12 per group): 27% | reduction in mean IS/AAR vs vehicle (porcine model of MI; full cohort, not significant (P = 0.0817)): 13% | IS or no-reflow corrected for the area at ischemic risk (porcine model of MI; in vivo): No significant reduction | ANCOVA: slopes of IS and NR as a function of AAR, NR as a function of IS (porcine model of MI; n = 11): No significant differences | plasma level of hFABP ([1]; 60 min of reperfusion): 120 ± 19 ng/mL | plasma level of hFABP ([1]; baseline): 8 ± 2 ng/mL
